Data taken from ChEMBL document CHEMBL6182879, “Synthesis and biological evaluation of novel 4-Arylaminoquinolines derivatives as EGFR/HDAC inhibitors” (Bioorg Med Chem Lett, 2025).

Assay: Cytotoxicity against human 16-HBE cells by CCK8 assay
Settings: 16hbe14o-

O=C(CCCCCCC(=O)Nc1ccccc1)NO [VORINOSTAT] gave an IC50 of 50.6 µM.
